Measured values published in patent EP4603105A1, “PHARMACEUTICAL COMPOSITION CONTAINING CYCLIC COMPOUND HAVING SELECTIVE KRAS INHIBITORY EFFECT AGAINST HRAS AND NRAS” (CHUGAI SEIYAKU KABUSHIKI KAISHA, priority 2022, dated 2024).
pIC50: −log10 of the molar value. *1 amine or outer side, *2 acyl side, *3 side chain or, on linkers, in order; H or OH if unused. Where a SMILES comes first, the peptide text is derived from it. Bridges are numbered along the chain shown (N, C = ends). [ ]: non-standard residue; d: D form. The star is where a group is joined. hPhe(3-Cl-4-CF3) = N[C@@H](CCc1ccc(C(F)(F)F)c(Cl)c1)C(=O)O; X34 = COCCN([C@@H](Cc1ccc(C(F)(F)F)cc1)C(=O)[*:2])[*:1]; NPrPhe(4-CF3) = CCCN[C@@H](Cc1ccc(C(F)(F)F)cc1)C(=O)O; NMePhe(4-Me) = CN[C@@H](Cc1ccc(C)cc1)C(=O)O; NMeGly(cPent) = CN[C@H](C(=O)O)C1CCCC1; Pro(4,4-F2) = O=C(O)[C@@H]1CC(F)(F)CN1; NMeGly(cBu) = CN[C@H](C(=O)O)C1CCC1; Hyp = O=C(O)[C@@H]1C[C@@H](O)CN1; NEtLeu = CCN[C@@H](CC(C)C)C(=O)O; NMeD = CN[C@@H](CC(=O)O)C(=O)O; NMeL = CN[C@@H](CC(C)C)C(=O)O; Morpholide = C1CN(*)CCO1; NMeA = CN[C@@H](C)C(=O)O; Ac5c = NC1(C(=O)O)CCCC1; Aze = O=C(O)[C@@H]1CCN1; NEtG = CCNCC(=O)O; Sar = CNCC(=O)O

Legend:
[1] = test system: human lung cancer strain NCI-H441; format: cell-based
Summary of the method: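 Signal came from […] measured per well once the reagent was added. Beforehand, cells were cultured at 37°C and 5% carbon dioxide on a compound series serially diluted in dimethyl sulfoxide.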

HRAS wild-type protein = HRAS wild-type protein (Homo sapiens, UniProt P01112); test: Binding to HRAS by surface plasmon resonance (SPR), KD and KD ratio to KRAS
Summary of the method: (§1)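 Recombinant RAS proteins bearing a biotinylated Avi tag and loaded with GDP served as the captured ligand, recaptured fresh every cycle. Binding responses were referenced to an uncoated surface and a buffer-only blank cycle. Dissociation constants were obtained by 1:1 model fitting at 30°C.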

[2] = biological target: GDP-bound NRAS wild-type protein (Homo sapiens, UniProt P01111); test: Binding to NRAS by surface plasmon resonance (SPR), KD and KD ratio to KRAS
Summary of the method: as §1

[3] = ratio of KD for HRAS wild-type protein to KD for KRAS
[4] = ratio of KD for GDP-bound NRAS wild-type protein to KD for KRAS
[5] = ratio of the KD value with respect to HRAS wild-type protein to the KD value with respect to KRAS
[6] = ratio of the KD value with respect to GDP-bound NRAS wild-type protein to the KD value with respect to KRAS

Sequence of HRAS wild-type protein (P01112 whole entry): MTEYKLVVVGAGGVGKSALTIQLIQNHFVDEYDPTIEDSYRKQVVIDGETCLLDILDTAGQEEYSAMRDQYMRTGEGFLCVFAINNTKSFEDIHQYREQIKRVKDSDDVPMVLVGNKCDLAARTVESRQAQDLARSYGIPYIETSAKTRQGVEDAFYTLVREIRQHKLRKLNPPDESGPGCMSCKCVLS
Sequence of GDP-bound NRAS wild-type protein (P01111 whole entry): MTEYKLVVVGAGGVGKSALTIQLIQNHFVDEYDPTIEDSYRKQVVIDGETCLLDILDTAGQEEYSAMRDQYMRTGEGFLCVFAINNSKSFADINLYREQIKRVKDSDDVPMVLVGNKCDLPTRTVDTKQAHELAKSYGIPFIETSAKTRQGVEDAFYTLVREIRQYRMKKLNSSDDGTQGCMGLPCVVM

Row | Structure (SMILES) | pIC50 [1] | HRAS /KRAS (HRAS wild-type protein; [3]) | NRAS /KRAS [2, 4] | other results
1 | CCO[C@@H]1C[C@H]2C(=O)NC3(CCC3)C(=O)N(C)[C@@H](C(C)(C)C)C(=O)N(C)[C@H](C(=O)N3CCOCC3)CC(=O)N(C)[C@@H](CC(C)C)C(=O)N[C@@H]([C@@H](C)CC)C(=O)N(C)CC(=O)N(C)[C@H]3CCCCN(C3=O)[C@@H](Cc3ccc(C(F)(F)F)cc3)C(=O)N(C)CC(=O)N[C@@H](CCc3cc(F)c(C(F)(F)F)c(F)c3)C(=O)N2C1 [PP0814] | 7.71 | B (a compound having 3 or more and less than 10 is denoted as B) | B (a compound having 3 or more and less than 10 is denoted as B) | 
2 | CCCN1C(=O)[C@@H]2CCN2C(=O)CN(C)C(=O)[C@H]([C@@H](C)CC)NC(=O)[C@H](CC(C)C)N(C)C(=O)C[C@@H](C(=O)N(C)C)N(C)C(=O)[C@H](C2CCCC2)N(C)C(=O)C2(CCCC2)NC(=O)[C@@H]2C[C@@H](OCC)CN2C(=O)[C@H](CCc2ccc(C(F)(F)F)c(Cl)c2)NC(=O)CN(C)C(=O)[C@@H]1Cc1ccc(C(F)(F)F)cc1 [PP0444] ([NMeL]I[Sar][Aze][NPrPhe(4-CF3)][Sar][hPhe(3-Cl-4-CF3)][Hyp](Et)[Ac5c][NMeGly(cPent)][NMeD]-NMe2; lactam N-11) | 8.85 |  |  | HRAS /KRAS (HRAS wild-type protein; [5]): C (A compound having a KD ratio of 0.1 or more and less than 3 is denoted as C); NRAS /KRAS [2, 6]: C (A compound having a KD ratio of 0.1 or more and less than 3 is denoted as C)
3 | CC[C@H](C)[C@@H]1NC(=O)[C@H](CC(C)C)N(C)C(=O)C[C@@H](C(=O)N2CCOCC2)N(C)C(=O)[C@H](C2CCCC2)N(C)C(=O)C2(CCCC2)NC(=O)[C@@H]2CCCN2C(=O)[C@H](CCc2ccc(C(F)(F)F)c(Cl)c2)NC(=O)CN(CC)C(=O)[C@H](Cc2ccc(C)cc2)N(C)C(=O)CN(C)C(=O)CN(C)C1=O [PP0025] ([NMeL]I[Sar][Sar][NMePhe(4-Me)][NEtG][hPhe(3-Cl-4-CF3)]P[Ac5c][NMeGly(cPent)][NMeD]-Morpholide; lactam N-11) | 7.56 | C (A compound having a KD ratio of 0.1 or more and less than 3 is denoted as C) | C (A compound having a KD ratio of 0.1 or more and less than 3 is denoted as C) | 
4 | CC[C@H](C)[C@@H]1NC(=O)[C@H](CC(C)C)N(C)C(=O)C[C@@H](C(=O)N2CCOCC2)N(C)C(=O)[C@H](C2CCCC2)N(C)C(=O)C2(CCCC2)NC(=O)[C@@H]2CCCN2C(=O)[C@H](CCc2ccc(C(F)(F)F)c(Cl)c2)NC(=O)CN(C)C(=O)[C@H](Cc2ccc(C(F)(F)F)cc2)N(CCOC)C(=O)CN(C)C(=O)CN(C)C1=O [PP0132] ([NMeL]I[Sar][Sar][X34][Sar][hPhe(3-Cl-4-CF3)]P[Ac5c][NMeGly(cPent)][NMeD]-Morpholide; lactam N-11) | 7.83 | C (A compound having a KD ratio of 0.1 or more and less than 3 is denoted as C) | C (A compound having a KD ratio of 0.1 or more and less than 3 is denoted as C) | 
5 | CCO[C@@H]1C[C@H]2C(=O)NC3(CCC3)C(=O)N(C)[C@@H](C3CCCC3)C(=O)N(C)[C@H](C(=O)N3CCOCC3)CC(=O)N(C)[C@@H](CC)C(=O)N[C@@H]([C@@H](C)CC)C(=O)N(C)CC(=O)N(C)[C@H]3CC(C)=CCN(C3=O)[C@@H](Cc3ccc(C(F)(F)F)cc3)C(=O)N(C)CC(=O)N[C@@H](CCc3cc(F)c(C(F)(F)F)c(F)c3)C(=O)N2C1 [PP1041] | 6.65 | C (A compound having a KD ratio of 0.1 or more and less than 3 is denoted as C) | C (A compound having a KD ratio of 0.1 or more and less than 3 is denoted as C) | 
6 | CCCN1C(=O)[C@@H]2CCN2C(=O)[C@H](C)N(C)C(=O)[C@H]([C@@H](C)CC)NC(=O)[C@H](CC(C)C)N(CC)C(=O)C[C@@H](C(=O)N2CCOCC2)N(C)C(=O)[C@H](C2CCCC2)N(C)C(=O)C2(CCCC2)NC(=O)[C@@H]2CCCN2C(=O)[C@H](CCc2ccc(C(F)(F)F)c(Cl)c2)NC(=O)CN(C)C(=O)[C@@H]1Cc1ccc(C(F)(F)F)cc1 [PP0151] ([NEtLeu]I[NMeA][Aze][NPrPhe(4-CF3)][Sar][hPhe(3-Cl-4-CF3)]P[Ac5c][NMeGly(cPent)][NMeD]-Morpholide; lactam N-11) | 8.28 | C (A compound having a KD ratio of 0.1 or more and less than 3 is denoted as C) | C (A compound having a KD ratio of 0.1 or more and less than 3 is denoted as C) | 
7 | CCCN1C(=O)CN(C)C(=O)CN(C)C(=O)[C@H]([C@@H](C)CC)NC(=O)[C@H](C2CCC2)N(C)C(=O)C[C@@H](C(=O)N2CCOCC2)N(C)C(=O)[C@H](C2CCCC2)N(C)C(=O)C2(CCCC2)NC(=O)[C@@H]2CC(F)(F)CN2C(=O)[C@H](CCc2ccc(C(F)(F)F)c(Cl)c2)NC(=O)CN(C)C(=O)[C@@H]1Cc1ccc(C(F)(F)F)cc1 [PP0200] ([NMeGly(cBu)]I[Sar][Sar][NPrPhe(4-CF3)][Sar][hPhe(3-Cl-4-CF3)][Pro(4,4-F2)][Ac5c][NMeGly(cPent)][NMeD]-Morpholide; lactam N-11) | 8.60 | C (A compound having a KD ratio of 0.1 or more and less than 3 is denoted as C) | C (A compound having a KD ratio of 0.1 or more and less than 3 is denoted as C) | 
8 | CCO[C@@H]1C[C@H]2C(=O)NC3(CCC3)C(=O)N(C)[C@@H](C3CCCC3)C(=O)N(CC)[C@H](C(=O)N3CCOCC3)CC(=O)N(C)[C@@H](CCc3ccccc3)C(=O)N[C@@H]([C@@H](C)CC)C(=O)N(C)CC(=O)N(C)[C@H]3CCCCCN(C3=O)[C@@H](Cc3ccc(C(F)(F)F)cc3)C(=O)N(C)CC(=O)N[C@@H](CCc3cc(F)c(C(F)(F)F)c(F)c3)C(=O)N2C1 [PP0953] | 5.79 | A (a compound having 10 or more and less than 20 is denoted as A) | A (a compound having 10 or more and less than 20 is denoted as A) | 

Second part, led by results:

Row | pIC50 [1] | Structure (SMILES) | HRAS /KRAS (HRAS wild-type protein; [3]) | NRAS /KRAS [2, 4] | other results
9 | 7.03 | CCC[C@H]1C(=O)N[C@@H]([C@@H](C)CC)C(=O)N(C)CC(=O)N(C)[C@H]2C/C=C\CCN(C2=O)[C@@H](Cc2ccc(C(F)(F)F)cc2)C(=O)N(C)CC(=O)N[C@@H](CCc2ccc(Cl)c(Cl)c2)C(=O)N2CCCCC[C@H]2C(=O)NC2(CC(C)(C)C2)C(=O)N(C)[C@@H](C(CC)CC)C(=O)N(C)[C@H](C(=O)N(C)C)CC(=O)N1C [PP3031] | A (a compound having 10 or more and less than 20 is denoted as A) | AA (a compound having 20 or more is denoted as AA) | 
10 | 8.39 | CC[C@H](C)[C@@H]1NC(=O)[C@H](CC(C)C)N(C)C(=O)C[C@@H](C(=O)N(C)CC)N(C)C(=O)[C@H](C2CCCC2)N(C)C(=O)C2(CC(C)(C)C2)NC(=O)[C@@H]2C[C@@H](F)CN2C(=O)[C@H](CCc2cc(F)c(C(F)(F)F)c(F)c2)NC(=O)CN(C)C(=O)[C@H](Cc2ccc(C(F)(F)F)cc2)N2CC/C=C\C[C@@H](C2=O)N(C)C(=O)CN(C)C1=O [PP1694] |  |  | HRAS /KRAS (HRAS wild-type protein; ratio of KD value for HRAS wild-type protein to KD value for KRAS (SPR)): A (a compound having 10 or more and less than 20 is denoted as A); NRAS /KRAS ([2]; ratio of KD value for GDP-bound NRAS wild-type protein to KD value for KRAS (SPR)): A (a compound having 10 or more and less than 20 is denoted as A)
11 | 8.36 | CCO[C@@H]1C[C@H]2C(=O)NC3(CCC3)C(=O)N(C)[C@@H](C3CCCC3)C(=O)N(C)[C@H](C(=O)N(C)CCOC)CC(=O)N(C)[C@@H](CC(C)C)C(=O)N[C@@H]([C@@H](C)CC)C(=O)N(C)CC(=O)N(C)[C@H]3C/C=C\CCN(C3=O)[C@@H](Cc3ccc(C(F)(F)F)cc3)C(=O)N(C)CC(=O)N[C@@H](CCc3ccc(C(F)(F)F)c(OC)c3)C(=O)N2C1 [PP1324] |  |  | HRAS /KRAS (HRAS wild-type protein; ratio of KD with respect to HRAS wild-type protein to KD with respect to KRAS): A (a compound having 10 or more and less than 20 is denoted as A); NRAS /KRAS ([2]; ratio of KD with respect to GDP-bound NRAS wild-type protein to KD with respect to KRAS): A (a compound having 10 or more and less than 20 is denoted as A)
12 | 6.90 | CCC(CC)[C@H]1C(=O)N(C)[C@H](C(=O)N(C)C)CC(=O)N(C)[C@@H](COC)C(=O)N[C@@H]([C@@H](C)CC)C(=O)N(C)CC(=O)N(C)[C@H]2C/C=C\CCN(C2=O)[C@@H](Cc2ccc(C(F)(F)F)cc2)C(=O)N(C)CC(=O)N[C@@H](CCc2cc(F)c(C(F)(F)F)c(F)c2)C(=O)N2CC[C@H]2C(=O)NC2(CC(C)(C)C2)C(=O)N1C [PP2918] | A (a compound having 10 or more and less than 20 is denoted as A) | AA (a compound having 20 or more is denoted as AA) | 
13 | 7.97 | CC[C@H](C)[C@@H]1NC(=O)[C@H](C(C)C)N(C)C(=O)C[C@@H](C(=O)N(C)C)N(C)C(=O)[C@H](C2CCCC2)N(C)C(=O)C2(CC(C)(C)C2)NC(=O)[C@@H]2C[C@H](C)CN2C(=O)[C@H](CCc2ccc(C(F)(F)F)c(OC)c2)NC(=O)CN(C)C(=O)[C@H](Cc2ccc(C(F)(F)F)cc2)N2CC/C=C\C[C@@H](C2=O)N(C)C(=O)CN(C)C1=O [PP2005] |  |  | HRAS /KRAS (HRAS wild-type protein; [5]): A (a compound having 10 or more and less than 20 is denoted as A); NRAS /KRAS [2, 6]: A (a compound having 10 or more and less than 20 is denoted as A)
14 | 8.00 | CCCOC[C@H]1C(=O)N[C@@H]([C@@H](C)CC)C(=O)N(C2CC2)CC(=O)N(C)[C@H]2C/C=C\CCN(C2=O)[C@@H](Cc2ccc(C)cc2)C(=O)N(C)CC(=O)N[C@@H](CCc2ccc(C(F)(F)F)c(OC)c2)C(=O)N2C[C@H](OCC)C[C@H]2C(=O)N(C)C2(CCC2)C(=O)N(C)[C@@H](C(CC)CC)C(=O)N(C)[C@H](C(=O)N(C)C)CC(=O)N1C [PP2327] |  |  | HRAS /KRAS (HRAS wild-type protein; [5]): A (a compound having 10 or more and less than 20 is denoted as A); NRAS /KRAS [2, 6]: A (a compound having 10 or more and less than 20 is denoted as A)
